This note sets out measurements from patent US8680113B2, “BMI-1 protein expression modulators” (PTC Therapeutics, Inc., priority 2008, dated 2014).

Some results are limits rather than exact numbers.

The subject of this assay is Bmi-1. Put plainly: Sandwich ELISA Assay (Bmi-1 ELISA in HT-1080 cells). The format is cell-based, human. The gist of the method: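 HT-1080 cells (8000/well) were treated with compounds in 0.5% final DMSO for 40-48 h at 37°C and then lysed. Bmi-1 in lysates was measured by sandwich ELISA: overnight capture at 4°C on mouse monoclonal, rabbit anti-Bmi-1 detection, HRP anti-rabbit, TMB. OD450 was read with an OD570 reference against a recombinant GST-Bmi-1 standard curve (0-8000 pg/mL).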
(In general: In an ELISA, binding on a coated surface is turned into a signal by an enzyme label.)
The term IC50 denotes the concentration needed to halve the response being measured. A lower IC50 goes with higher potency. For `Clc1cccc(Nc2nccc(-c3cnc4ncccn34)n2)c1` [Cpd 269, N-(3-chlorophenyl)-4-(imidazo[1,2-a]pyrimidin-3-yl)pyrimidin-2-amine], the IC50 was less than 500 nM.
Compound `Brc1ccc(Nc2nccc(-c3cnc4ncccn34)n2)cc1` [Cpd 270, N-(4-bromophenyl)-4-(imidazo[1,2-a]pyrimidin-3-yl)pyrimidin-2-amine] came in with an IC50 of less than 500 nM.
The compound `CCc1nc2ncccn2c1-c1ccnc(Nc2ccc(Br)cc2)n1` [Cpd 271, N-(4-bromophenyl)-4-(2-ethylimidazo[1,2-a]pyrimidin-3-yl)pyrimidin-2-amine] displayed an IC50 of less than 500 nM.
“N-(4-ethoxyphenyl)-4-(2-methylimidazo[1,2-a]pyridin-3-yl)pyrimidin-2-amine [Cpd 128]”: the IC50 is less than 500 nM.
